# In US11401555B2, “Genetic polymorphisms associated with stroke, methods of detection and uses thereof” (CELERA CORPORATION, priority 2008, dated 2022):
# Test: Stroke statin response (SSR) in the PROSPER pravastatin trial: pravastatin-treated versus placebo-treated, by SNP genotype
# Format: in vivo, human
# Details: for HR_RESP_unadj (hazard ratio, pravastatin-treated versus placebo-treated): endpoint stroke; for EVENTS_RESP (number of stroke events): pravastatin arm
# Description: (hCV26505812) for association with SSR in CARE (Table 37) and PROSPER (Table 38), including both unadjusted and adjusted analyses (adjusted for factors such as age, gender, smoking status, hypertension, diabetes, BMI, and LDL and HDL levels). Table 37 provides results in CARE, and Table 38 provides results in PROSPER (whether each analysis is unadjusted or adjusted is indicated in the “adjust” column in Table 37, or by “unadj” and “adj” column labels in Tables 38). With respect to Tables 22-32 and 37-38, the columns labeled “Genotype” (in Tables 22-28 and 37), “Geno_Placebo” (in Tables 29-30 and 38), and “Geno_Resp” (in Tables 31-32 and 38) indicate the genotype which the given stroke risk or SSR results correspond to. […] In Tables 29-32 and 38, the columns labeled “LOWER_PLACEBO” and “UPPER_PLACEBO” (Tables 29-30 and 38), and “LOWER_RESP” and “UPPER_RESP” (Tables 31-32 and 38), refer to the lower and upper 95% confidence intervals for the hazard ratios. See Example Six below for further information relating to Tables 22-32 and 37-38. […] As used herein, the term “benefit” (with respect to a preventive or therapeutic drug treatment) is defined as achieving a reduced risk for a disease that the drug is intended to treat or prevent (e.g., stroke) by administrating the drug treatment, compared with the risk for the disease in the absence of receiving the drug treatment (or receiving a placebo in lieu of the drug treatment) for the same genotype. The term “benefit” may be used herein interchangeably with terms such as “respond positively” or “positively respond”. For stroke risk and statin response associations based on samples from the CARE and PROSPER trials described herein, stroke risk is assessed by comparing the risk of stroke for a given genotype with the risk of stroke for a reference genotype either in the placebo arm of the trial or in the whole study population of the trial, and statin response is assessed by comparing the risk of stroke in the pravastatin arm of the trial with the risk of stroke in the placebo arm of the trial for the same genotype. […] Example Five above describes the analysis of these 61 SNPs plus 17 additional SNPs in the German West Study. […] In PROSPER, SNPs were analyzed for association with stroke risk or SSR, in the whole study cohort (strata: “ALL”), or in the subgroup with a history of CVD (strata: “hist”) or without a CVD history (strata: “no hist”). […] Also in the CARE and PROSPER trials, the chromosome 9p21 SNP […] (hCV26505812) was analyzed further for association with SSR, including unadjusted and adjusted analysis. Adjusted analysis in CARE (Table 37) was adjusted for age, gender, smoking status, hypertension, diabetes, body mass index (BMI), and LDL and HDL levels, and adjusted analysis in PROSPER (Table 38) was adjusted for country, gender, age, LDL, HDL, smoking status (current vs. past or never), history of hypertension, and diabetes. Table 37 provides results in CARE, and Table 38 provides results in PROSPER (whether each analysis is unadjusted or adjusted is indicated in the “adjust” column in Table 37, or by “unadj” and “adj” column labels in Tables 38). All the p-values (including Pint values) provided in Tables 37-38 are two-sided p-values.
# [1] = hCV1348610 rs3739636 C9orf46, GENO_RESP AA + AG, MODE DOM, STRATA hist
# [2] = hCV1348610 rs3739636 C9orf46, GENO_RESP AA, MODE GEN, STRATA hist
# [3] = hCV1348610 rs3739636 C9orf46, GENO_RESP AG, MODE GEN, STRATA hist
# [4] = hCV1348610 rs3739636 C9orf46, GENO_RESP GG, MODE GEN, STRATA hist
# [5] = hCV2091644 rs1010 VAMP8, GENO_RESP CC, MODE GEN, STRATA no hist
# [6] = hCV2091644 rs1010 VAMP8, GENO_RESP CT, MODE GEN, STRATA no hist
# [7] = hCV2091644 rs1010 VAMP8, GENO_RESP TT, MODE GEN, STRATA no hist
smiles,measurement,setting,value
CC[C@H](C)C(=O)O[C@H]1C[C@H](O)C=C2C=C[C@H](C)[C@H](CC[C@@H](O)C[C@@H](O)CC(=O)O)[C@H]21 [pravastatin],"HR_RESP_unadj (hazard ratio, pravastatin-treated versus placebo-treated)","PROSPER, rs10757274 genotype AA + AG, mode REC, strata ALL, unadjusted",0.919
same,"HR_RESP_unadj (hazard ratio, pravastatin-treated versus placebo-treated)","PROSPER, rs10757274 genotype AA + AG, mode REC, strata hist, unadjusted",0.885
same,"HR_RESP_unadj (hazard ratio, pravastatin-treated versus placebo-treated)","PROSPER, rs10757274 genotype AA + AG, mode REC, strata no hist, unadjusted",0.927
same,"HR_RESP_unadj (hazard ratio, pravastatin-treated versus placebo-treated)","PROSPER, rs10757274 genotype AA, mode GEN, strata ALL, unadjusted",1.330
same,"HR_RESP_unadj (hazard ratio, pravastatin-treated versus placebo-treated)","PROSPER, rs10757274 genotype AA, mode GEN, strata hist, unadjusted",1.093
same,"HR_RESP_unadj (hazard ratio, pravastatin-treated versus placebo-treated)","PROSPER, rs10757274 genotype AA, mode GEN, strata no hist, unadjusted",1.570
same,"HR_RESP_unadj (hazard ratio, pravastatin-treated versus placebo-treated)","PROSPER, rs10757274 genotype AG, mode GEN, strata ALL, unadjusted",0.777
same,"HR_RESP_unadj (hazard ratio, pravastatin-treated versus placebo-treated)","PROSPER, rs10757274 genotype AG, mode GEN, strata hist, unadjusted",0.816
same,"HR_RESP_unadj (hazard ratio, pravastatin-treated versus placebo-treated)","PROSPER, rs10757274 genotype AG, mode GEN, strata no hist, unadjusted",0.698
same,"HR_RESP_unadj (hazard ratio, pravastatin-treated versus placebo-treated)","PROSPER, rs10757274 genotype GG + AG, mode DOM, strata ALL, unadjusted",0.864
same,"HR_RESP_unadj (hazard ratio, pravastatin-treated versus placebo-treated)","PROSPER, rs10757274 genotype GG + AG, mode DOM, strata hist, unadjusted",0.892
same,"HR_RESP_unadj (hazard ratio, pravastatin-treated versus placebo-treated)","PROSPER, rs10757274 genotype GG + AG, mode DOM, strata no hist, unadjusted",0.813
same,"HR_RESP_unadj (hazard ratio, pravastatin-treated versus placebo-treated)","PROSPER, rs10757274 genotype GG, mode GEN, strata ALL, unadjusted",1.082
same,"HR_RESP_unadj (hazard ratio, pravastatin-treated versus placebo-treated)","PROSPER, rs10757274 genotype GG, mode GEN, strata hist, unadjusted",1.098
same,"HR_RESP_unadj (hazard ratio, pravastatin-treated versus placebo-treated)","PROSPER, rs10757274 genotype GG, mode GEN, strata no hist, unadjusted",1.068
same,"HR (hazard ratio) for stroke events, pravastatin-treated versus placebo-treated","PROSPER, heterozygous carriers of SNP rs10757274 (chromosome 9p21), unadjusted",0.777
same,EVENTS_RESP (number of stroke events),"PROSPER, genotype AA + AG, mode REC, strata ALL",150
same,EVENTS_RESP (number of stroke events),"PROSPER, genotype AA + AG, mode REC, strata hist",87
same,EVENTS_RESP (number of stroke events),"PROSPER, genotype AA + AG, mode REC, strata no hist",63
same,EVENTS_RESP (number of stroke events),"PROSPER, genotype AA, mode GEN, strata ALL",56
same,EVENTS_RESP (number of stroke events),"PROSPER, genotype AA, mode GEN, strata hist",28
same,EVENTS_RESP (number of stroke events),"PROSPER, genotype AA, mode GEN, strata no hist",28
same,EVENTS_RESP (number of stroke events),"PROSPER, genotype AG, mode GEN, strata ALL",94
same,EVENTS_RESP (number of stroke events),"PROSPER, genotype AG, mode GEN, strata hist",59
same,EVENTS_RESP (number of stroke events),"PROSPER, genotype AG, mode GEN, strata no hist",35
same,EVENTS_RESP (number of stroke events),"PROSPER, genotype GG + AG, mode DOM, strata ALL",145
same,EVENTS_RESP (number of stroke events),"PROSPER, genotype GG + AG, mode DOM, strata hist",86
same,EVENTS_RESP (number of stroke events),"PROSPER, genotype GG + AG, mode DOM, strata no hist",59
same,EVENTS_RESP (number of stroke events),"PROSPER, genotype GG, mode GEN, strata ALL",51
same,EVENTS_RESP (number of stroke events),"PROSPER, genotype GG, mode GEN, strata hist",27
same,EVENTS_RESP (number of stroke events),"PROSPER, genotype GG, mode GEN, strata no hist",24
same,EVENTS_RESP,[1],71
same,"HR_RESP (hazard ratio, pravastatin-treated versus placebo-treated)",[1],0.8064
same,EVENTS_RESP,[2],24
same,"HR_RESP (hazard ratio, pravastatin-treated versus placebo-treated)",[2],0.9861
same,EVENTS_RESP,[3],47
same,"HR_RESP (hazard ratio, pravastatin-treated versus placebo-treated)",[3],0.7406
same,EVENTS_RESP,[4],43
same,"HR_RESP (hazard ratio, pravastatin-treated versus placebo-treated)",[4],1.277
same,EVENTS_RESP,"hCV2091644 rs1010 VAMP8, GENO_RESP CC + CT, MODE DOM, STRATA no hist",50
same,EVENTS_RESP,[5],13
same,"HR_RESP (hazard ratio, pravastatin-treated versus placebo-treated)",[5],0.6359
same,EVENTS_RESP,[6],37
same,"HR_RESP (hazard ratio, pravastatin-treated versus placebo-treated)",[6],0.8504
same,EVENTS_RESP,[7],36
same,"HR_RESP (hazard ratio, pravastatin-treated versus placebo-treated)",[7],1.358
same,EVENTS_RESP,"hCV2169762 rs1804689 HPS1, GENO_RESP GG + GT, MODE REC, STRATA hist",109
same,EVENTS_RESP,"hCV2169762 rs1804689 HPS1, GENO_RESP GG, MODE GEN, STRATA hist",62
